Laboratory results as given in patent US9937139B2 (priority 2014, dated 2018).

Key:
B16 melanoma cells = experiment: In vivo tumor growth suppression, B16 efficacy model; details: C57BL/6 mice, s.c. B16 melanoma, IP daily for 12 days; test compound 5 mg/kg and 10 mg/kg (dose of tabulated value not stated), melphalan 2.5 mg/kg
[1] = system: LLCPK cells conditionally expressing hLAT1; experiment: LAT1-specific in vitro cytotoxicity, modified clonigenic assay; assay type: cell-based; details: 3 μM test compound for 30 min, then 7-10 days proliferation; induced (LAT1+) vs non-induced

Compound	Tumor Growth (% Control) 5 days post-dosing (B16 melanoma cells)	Tumor Growth (% Control) End of dosing (B16 melanoma cells)	percent surviving cells in cells expressing LAT1 compared to cells not expressing LAT1 [1]
Cc1ccc(N(CCCl)CCCl)cc1C(C)(CN)CC(=O)O (centres unmarked) [Example 5, 4-Amino-3-[5-[bis(2-chloroethyl)amino]-2-methyl-phenyl]-3-methyl-butanoic acid]	14 % Control	13 % Control	
Cc1cc(N(CCCl)CCCl)ccc1C(C)(CN)CC(=O)O (centres unmarked) [Example 7, 4-Amino-3-[4-[bis(2-chloroethyl)amino]-2-methyl-phenyl]-3-methyl-butanoic acid]	50 % Control	38 % Control	
Cc1c(N(CCCl)CCCl)cccc1C(C)(CN)CC(=O)O (centres unmarked) [Example 6, 4-Amino-3-[3-[bis(2-chloroethyl)amino]-2-methyl-phenyl]-3-methyl-butanoic acid]			about the same
N[C@@H](Cc1ccc(N(CCCl)CCCl)cc1)C(=O)O [Melphalan, melphalan, reference compound]	56 % Control	33 % Control	about the same
